According to the NIST ThermoML archive (doi:10.1021/je4000394):
Numbers after ± are expanded uncertainties.

Tests used:
[1] = Liquid, Vibrating tube method
[2] = xn = mol fraction of the nth substance listed; conditions: Liquid; for mass density: Vibrating tube method; for viscosity: 325.2 K, Flow viscometer

CCCCCCCCCCCCCCCCCC [octadecane] showed a mass density ([1]; 323 K, 100 kPa) of 761.2 ± 0.4 kg/m3, a mass density ([1]; 323 K, 1000 kPa) of 761.9 ± 0.4 kg/m3 and a mass density ([1]; 323 K, 2000 kPa) of 762.7 ± 0.4 kg/m3. The mass density ([1]; 323 K, 3000 kPa) was 763.3 ± 0.4 kg/m3, the mass density ([1]; 323 K, 4000 kPa) was 764 ± 0.4 kg/m3 and the mass density ([1]; 323 K, 5000 kPa) was 764.8 ± 0.4 kg/m3. The mass density ([1]; 323 K, 6000 kPa) was 765.4 ± 0.4 kg/m3, the mass density ([1]; 323 K, 7000 kPa) was 766 ± 0.4 kg/m3 and the mass density ([1]; 323 K, 8000 kPa) was 766.7 ± 0.4 kg/m3. The mass density ([1]; 323 K, 9000 kPa) was 767.5 ± 0.4 kg/m3 and the mass density ([1]; 323 K, 10000 kPa) was 768.1 ± 0.4 kg/m3.

For CCCCCCCCCC [decane] + CCCCCCCCCCCCCCCCCC, the mass density ([2]; 323.2 K, 100 kPa, x1 = 1) was 707 ± 0.3 kg/m3, the mass density ([2]; 323.2 K, 1000 kPa, x1 = 1) was 707.9 ± 0.4 kg/m3 and the mass density ([2]; 323.2 K, 2000 kPa, x1 = 1) was 708.8 ± 0.4 kg/m3. The mass density ([2]; 323.2 K, 3000 kPa, x1 = 1) was 709.7 ± 0.4 kg/m3, the mass density ([2]; 323.2 K, 4000 kPa, x1 = 1) was 710.6 ± 0.4 kg/m3 and the mass density ([2]; 323.2 K, 5000 kPa, x1 = 1) was 711.5 ± 0.4 kg/m3. For the same molecule, the mass density ([2]; 323.2 K, 6000 kPa, x1 = 1) was 712.4 ± 0.4 kg/m3, the mass density ([2]; 323.2 K, 7000 kPa, x1 = 1) was 713.3 ± 0.4 kg/m3 and the mass density ([2]; 323.2 K, 8000 kPa, x1 = 1) was 714.1 ± 0.4 kg/m3. For the same molecule, the mass density ([2]; 323.2 K, 9000 kPa, x1 = 1) was 715 ± 0.4 kg/m3 and the mass density ([2]; 323.2 K, 10000 kPa, x1 = 1) was 715.9 ± 0.4 kg/m3.

In the case of CCCCCCCCCC [decane], the mass density ([1]; 323.2 K, 100 kPa) is reported as 707 ± 0.3 kg/m3, the mass density ([1]; 323.2 K, 1000 kPa) is reported as 707.9 ± 0.4 kg/m3 and the mass density ([1]; 323.2 K, 2000 kPa) is reported as 708.8 ± 0.4 kg/m3. The mass density ([1]; 323.2 K, 3000 kPa) was 709.7 ± 0.4 kg/m3, the mass density ([1]; 323.2 K, 4000 kPa) was 710.6 ± 0.4 kg/m3 and the mass density ([1]; 323.2 K, 5000 kPa) was 711.5 ± 0.4 kg/m3. It also gave a mass density ([1]; 323.2 K, 6000 kPa) of 712.4 ± 0.4 kg/m3, a mass density ([1]; 323.2 K, 7000 kPa) of 713.3 ± 0.4 kg/m3 and a mass density ([1]; 323.2 K, 8000 kPa) of 714.1 ± 0.4 kg/m3. It also gave a mass density ([1]; 323.2 K, 9000 kPa) of 715 ± 0.4 kg/m3 and a mass density ([1]; 323.2 K, 10000 kPa) of 715.9 ± 0.4 kg/m3.

CCCCCCCCCCCCCCCCCC [octadecane] + CCCCCCCCCC gave a mass density ([2]; 323 K, 100 kPa, x2 = 0) of 761.2 ± 0.4 kg/m3, a mass density ([2]; 323 K, 100 kPa, x2 = 0.75) of 726.3 ± 0.4 kg/m3 and a mass density ([2]; 323 K, 1000 kPa, x2 = 0) of 761.9 ± 0.4 kg/m3. The mass density ([2]; 323 K, 1000 kPa, x2 = 0.75) was 727.1 ± 0.4 kg/m3, the mass density ([2]; 323 K, 2000 kPa, x2 = 0) was 762.7 ± 0.4 kg/m3 and the mass density ([2]; 323 K, 2000 kPa, x2 = 0.75) was 728 ± 0.4 kg/m3. For the same molecule, the mass density ([2]; 323 K, 3000 kPa, x2 = 0) was 763.3 ± 0.4 kg/m3, the mass density ([2]; 323 K, 3000 kPa, x2 = 0.75) was 728.8 ± 0.4 kg/m3 and the mass density ([2]; 323 K, 4000 kPa, x2 = 0) was 764 ± 0.4 kg/m3. It also gave a mass density ([2]; 323 K, 4000 kPa, x2 = 0.75) of 729.6 ± 0.4 kg/m3, a mass density ([2]; 323 K, 5000 kPa, x2 = 0) of 764.8 ± 0.4 kg/m3 and a mass density ([2]; 323 K, 5000 kPa, x2 = 0.75) of 730.4 ± 0.4 kg/m3. The mass density ([2]; 323 K, 6000 kPa, x2 = 0) was 765.4 ± 0.4 kg/m3, the mass density ([2]; 323 K, 6000 kPa, x2 = 0.75) was 731.2 ± 0.4 kg/m3 and the mass density ([2]; 323 K, 7000 kPa, x2 = 0) was 766 ± 0.4 kg/m3. It also gave a mass density ([2]; 323 K, 7000 kPa, x2 = 0.75) of 732.1 ± 0.4 kg/m3, a mass density ([2]; 323 K, 8000 kPa, x2 = 0) of 766.7 ± 0.4 kg/m3 and a mass density ([2]; 323 K, 8000 kPa, x2 = 0.75) of 732.9 ± 0.4 kg/m3. It also gave a mass density ([2]; 323 K, 9000 kPa, x2 = 0) of 767.5 ± 0.4 kg/m3, a mass density ([2]; 323 K, 9000 kPa, x2 = 0.75) of 733.7 ± 0.4 kg/m3 and a mass density ([2]; 323 K, 10000 kPa, x2 = 0) of 768.1 ± 0.4 kg/m3. For the same molecule, the mass density ([2]; 323 K, 10000 kPa, x2 = 0.75) was 734.5 ± 0.4 kg/m3, the mass density ([2]; 323.1 K, 100 kPa, x2 = 0.25) was 752.2 ± 0.4 kg/m3 and the mass density ([2]; 323.1 K, 100 kPa, x2 = 0.5) was 740.8 ± 0.4 kg/m3. It also gave a mass density ([2]; 323.1 K, 1000 kPa, x2 = 0.25) of 752.9 ± 0.4 kg/m3, a mass density ([2]; 323.1 K, 1000 kPa, x2 = 0.5) of 741.6 ± 0.4 kg/m3 and a mass density ([2]; 323.1 K, 2000 kPa, x2 = 0.25) of 753.7 ± 0.4 kg/m3. The mass density ([2]; 323.1 K, 2000 kPa, x2 = 0.5) was 742.4 ± 0.4 kg/m3, the mass density ([2]; 323.1 K, 3000 kPa, x2 = 0.25) was 754.5 ± 0.4 kg/m3 and the mass density ([2]; 323.1 K, 3000 kPa, x2 = 0.5) was 743.1 ± 0.4 kg/m3. It also gave a mass density ([2]; 323.1 K, 4000 kPa, x2 = 0.25) of 755.2 ± 0.4 kg/m3, a mass density ([2]; 323.1 K, 4000 kPa, x2 = 0.5) of 743.9 ± 0.4 kg/m3 and a mass density ([2]; 323.1 K, 5000 kPa, x2 = 0.25) of 755.9 ± 0.4 kg/m3. The mass density ([2]; 323.1 K, 5000 kPa, x2 = 0.5) was 744.7 ± 0.4 kg/m3, the mass density ([2]; 323.1 K, 6000 kPa, x2 = 0.25) was 756.7 ± 0.4 kg/m3 and the mass density ([2]; 323.1 K, 6000 kPa, x2 = 0.5) was 745.5 ± 0.4 kg/m3. For the same molecule, the mass density ([2]; 323.1 K, 7000 kPa, x2 = 0.25) was 757.3 ± 0.4 kg/m3, the mass density ([2]; 323.1 K, 7000 kPa, x2 = 0.5) was 746.2 ± 0.4 kg/m3 and the mass density ([2]; 323.1 K, 8000 kPa, x2 = 0.25) was 758.1 ± 0.4 kg/m3. It also gave a mass density ([2]; 323.1 K, 8000 kPa, x2 = 0.5) of 747 ± 0.4 kg/m3, a mass density ([2]; 323.1 K, 9000 kPa, x2 = 0.25) of 758.8 ± 0.4 kg/m3 and a mass density ([2]; 323.1 K, 9000 kPa, x2 = 0.5) of 747.8 ± 0.4 kg/m3. The mass density ([2]; 323.1 K, 10000 kPa, x2 = 0.25) was 759.6 ± 0.4 kg/m3, the mass density ([2]; 323.1 K, 10000 kPa, x2 = 0.5) was 748.6 ± 0.4 kg/m3 and the viscosity ([2]; 100 kPa, x1 = 0.25) was 0.883 ± 0.07 mPa·s. It also gave a viscosity ([2]; 100 kPa, x1 = 0.5) of 1.31 ± 0.12 mPa·s and a viscosity ([2]; 100 kPa, x1 = 0.75) of 1.702 ± 0.14 mPa·s.
